Where two headings read alike, the source gives them in different places.
What was measured:
human C3bBb = human C3bBb (Homo sapiens (Human), UniProt P00751); assay: Human C3bBb enzyme assay (C3a generation from C3, ELISA); type: biochemical; settings: read-out: Human C3b:Bb IC50 Avg
Protocol: Compounds disclosed herein were evaluated for their potency to inhibit human C3bBb in a biochemical assay. To generate active C3bBb complex in vitro, purified human C3b (Complement Technology, A114), CFB (Complement Technology, A135) and CFD (Complement Technology, A136) were mixed in a 1:1:1 ratio to a final concentration of 1 μM each in the C3bBb assay buffer (PBS pH 7.4, 100 μM NiCl2, 0.05% (w/v) CHAPS). The reaction mix was incubated at room temperature for 30 minutes on a rotating platform. […] On the day of the enzyme assay, a reaction mixture containing 3 nM C3bBb complex and 1 μM purified human C3 (Complement Technology, A113) was prepared in the C3bBb assay buffer. Compounds were serial diluted 3-fold in 100% DMSO for a 10-point dose-response curve. A 0.5 μL aliquot of diluted compound solution was transferred to a conical bottom 96-well plate, before 49.5 μL of the reaction mix was added to each well to initiate the reaction. The plate was incubated for 1 hour at room temperature. […] The generation of C3a from C3 by the C3bBb complex was measured using the MicroVue C3a Plus EIA ELISA kit (Quidel, A031). The concentration of C3a from each well was calculated using a standard curve. Percent inhibition values were generated using the baseline (C3 only) and the maximum control (DMSO instead of compound), and IC50 of each compound was calculated using 4-parameter logistic regression.

[1] = tested on: MAC formation in normal human serum; assay: Human serum MAC formation assay (zymosan-coated plates, 50% normal human serum); settings: 50% normal human serum with EGTA, 37° C. 30 minutes
Protocol: MAC deposition assay using normal human serum was applied to evaluate compound potency under physiologically relevant conditions. Black Maxisorp plates (Thermo Fisher, 437111) were coated with preactivated zymosan (Complement Technology, B400) at 0.5 mg/mL in carbonate buffer (pH 9.5, Sigma, C3041) at room temperature overnight. Compounds were serial diluted 3-fold in 100% DMSO for a 10-point dose-response curve. Normal human serum (Complement Technology, NHS) was diluted to 50% (v/v) with the gelatin buffer (4.2 mM HEPES pH 7.4, 0.15 mM CaCl2, 141 mM NaCl, 4.5 mM MgCl2, 0.1% gelatin) containing 20 mM EGTA or 20 mM EDTA. In conical bottom 96-well plates, 1 μL compound and 99 μL of serum-EGTA were mixed. Serum-EDTA was used as baseline control. The serum-compound mixture was incubated at room temperature for 15 minutes before being transferred to the washed zymosan plate for complement activation at 37° C. for 30 minutes. The reaction was terminated by decanting the reaction mixture and adding blocking buffer (Thermo Fisher, 37539) for 20 minutes. MAC formation on the ELISA plate was detected using 0.2 μg/mL mouse anti-human C9 neoepitope monoclonal antibody (Thermo Fisher, MA5-33373) diluted in phosphate-buffered saline with 0.05% Tween-20 (PBST). A goat anti-mouse IgG-HRP antibody (Thermo Fisher, A16072) was used at 1:2000 in PBST as secondary antibody. After washing, the reaction was developed using QuantaBlu (Thermo Fisher, 15169) for 20 minutes at room temperature. The plates were read at 325 nm excitation and 420 nm emission wavelengths. Percent inhibition values were generated using the baseline (EDTA-serum) and the maximum control (EGTA-serum). An IC50 for each compound was calculated using 4-parameter logistic regression.

[2] = 3 nM C3bBb complex, 1 μM human C3, 1 hour room temperature
[3] = starred values: assay conducted with 1 nM C3b:Bb enzyme

Chain of human C3bBb (P00751 260-764): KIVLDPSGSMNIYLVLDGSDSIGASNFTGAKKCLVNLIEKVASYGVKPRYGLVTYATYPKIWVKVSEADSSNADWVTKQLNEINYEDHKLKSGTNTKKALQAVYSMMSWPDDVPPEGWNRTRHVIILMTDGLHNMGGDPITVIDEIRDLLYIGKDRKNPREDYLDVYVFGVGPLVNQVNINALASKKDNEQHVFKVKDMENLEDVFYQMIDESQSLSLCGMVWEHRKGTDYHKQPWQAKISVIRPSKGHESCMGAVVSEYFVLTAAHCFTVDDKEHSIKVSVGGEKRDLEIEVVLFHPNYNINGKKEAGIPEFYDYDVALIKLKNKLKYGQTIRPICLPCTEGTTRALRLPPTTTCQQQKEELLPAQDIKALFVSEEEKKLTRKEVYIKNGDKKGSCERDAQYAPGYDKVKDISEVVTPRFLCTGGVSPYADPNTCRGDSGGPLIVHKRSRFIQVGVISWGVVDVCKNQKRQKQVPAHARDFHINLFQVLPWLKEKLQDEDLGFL
Chain of human C3bBb (P01024 23-667 partner): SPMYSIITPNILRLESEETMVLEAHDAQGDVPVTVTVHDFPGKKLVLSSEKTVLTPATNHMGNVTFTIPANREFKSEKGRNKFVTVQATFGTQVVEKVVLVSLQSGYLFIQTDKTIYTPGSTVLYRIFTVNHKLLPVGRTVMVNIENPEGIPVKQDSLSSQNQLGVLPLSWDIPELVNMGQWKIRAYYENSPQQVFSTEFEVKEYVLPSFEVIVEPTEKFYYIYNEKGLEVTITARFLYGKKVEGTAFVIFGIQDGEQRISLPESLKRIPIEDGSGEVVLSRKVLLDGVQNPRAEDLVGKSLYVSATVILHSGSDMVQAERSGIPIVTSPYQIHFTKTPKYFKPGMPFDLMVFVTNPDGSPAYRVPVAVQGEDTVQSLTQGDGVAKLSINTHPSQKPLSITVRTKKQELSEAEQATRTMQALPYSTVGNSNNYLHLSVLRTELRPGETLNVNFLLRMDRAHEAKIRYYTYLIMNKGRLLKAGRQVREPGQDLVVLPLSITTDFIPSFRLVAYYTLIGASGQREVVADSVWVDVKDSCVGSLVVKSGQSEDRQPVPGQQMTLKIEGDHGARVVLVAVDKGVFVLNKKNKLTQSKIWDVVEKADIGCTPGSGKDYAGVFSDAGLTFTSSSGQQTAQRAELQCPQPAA
Chain of human C3bBb (P01024 749-1663 partner): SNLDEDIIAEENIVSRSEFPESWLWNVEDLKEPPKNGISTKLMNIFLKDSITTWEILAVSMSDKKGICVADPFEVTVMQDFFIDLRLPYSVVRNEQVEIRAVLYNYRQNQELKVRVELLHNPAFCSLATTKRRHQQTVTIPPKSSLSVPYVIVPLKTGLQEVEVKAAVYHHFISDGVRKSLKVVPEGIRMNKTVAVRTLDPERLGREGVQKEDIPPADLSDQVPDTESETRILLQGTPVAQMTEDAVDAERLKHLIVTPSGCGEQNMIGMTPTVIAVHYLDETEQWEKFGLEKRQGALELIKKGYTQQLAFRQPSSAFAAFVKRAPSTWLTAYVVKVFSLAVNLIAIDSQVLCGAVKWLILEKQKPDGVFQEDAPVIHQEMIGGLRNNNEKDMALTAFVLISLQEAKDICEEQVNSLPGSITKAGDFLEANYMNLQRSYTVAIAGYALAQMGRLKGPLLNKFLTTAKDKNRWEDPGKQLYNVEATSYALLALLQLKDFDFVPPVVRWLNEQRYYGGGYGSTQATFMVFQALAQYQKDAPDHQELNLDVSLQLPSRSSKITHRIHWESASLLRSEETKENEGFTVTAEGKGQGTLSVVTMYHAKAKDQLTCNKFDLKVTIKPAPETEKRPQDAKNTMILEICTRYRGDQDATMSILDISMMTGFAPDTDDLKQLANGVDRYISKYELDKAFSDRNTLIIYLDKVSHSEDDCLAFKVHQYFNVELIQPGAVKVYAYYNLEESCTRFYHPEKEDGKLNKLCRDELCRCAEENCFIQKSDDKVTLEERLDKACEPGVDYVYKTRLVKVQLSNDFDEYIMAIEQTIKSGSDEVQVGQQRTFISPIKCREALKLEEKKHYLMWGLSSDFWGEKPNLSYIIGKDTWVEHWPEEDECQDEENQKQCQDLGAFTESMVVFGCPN

IC50 (human C3bBb; [2]) [nM]	IC50 (human C3bBb; [3]) [nM]	SMILES	IC50 [1] [nM]
> 100	–	COc1cc(C)c2[nH]ccc2c1CN1CC2(CCCC2)C1c1ccc(C(=O)O)cc1 (racemic) [Example 39, (±)-4-(2-((5-methoxy-7-methyl-1H-indol-4-yl)methyl)-2-azaspiro[3.4]octan-1-yl)benzoic acid]	300 to 500
–	< 10	COc1cc(C)c2[nH]ccc2c1CN1CC[C@H](N2CC(C(F)(F)F)C2)C[C@H]1c1ccc(C(=O)O)cc1 (racemic) [Example 71, (±)-trans-4-1-((5-methoxy-7-methyl-1H-indol-4-yl)methyl)-4-(3-(trifluoromethyl)azetidin-1-yl)piperidin-2-yl)benzoic acid]	300 to 500
–	< 10	COc1cc(C)c2[nH]ccc2c1CN1CC[C@]2(C[C@H]1c1ccc(C(=O)O)cc1)C[C@@H](C(F)F)C2 (single isomer, unassigned) [Example 46, 4-((2R,4s,6S)-2-(difluoromethyl)-7-((5-methoxy-7-methyl-1H-indol-4-yl)methyl)-7-azaspiro[3.5]nonan-6-yl)benzoic acid or 4-((2S,4r,6S)-2-(difluoromethyl)-7-((5-methoxy-7-methyl-1H-indol-4-yl)methyl)-7-azaspiro[3.5]nonan-6-yl)benzoic acid]	100 to 200
–	< 10	COc1cc(C)c2[nH]ccc2c1CN1CC[C@]2(C[C@H]1c1ccc(C(=O)O)cc1)C[C@@H](C(F)F)C2 (single isomer, unassigned) [Example 47, 4-((2R,4s,6S)-2-(difluoromethyl)-7-((5-methoxy-7-methyl-1H-indol-4-yl)methyl)-7-azaspiro[3.5]nonan-6-yl)benzoic acid or 4-((2S,4r,6S)-2-(difluoromethyl)-7-((5-methoxy-7-methyl-1H-indol-4-yl)methyl)-7-azaspiro[3.5]nonan-6-yl)benzoic acid]	< 100
–	< 10	COc1cc(C)c2[nH]ccc2c1CN1CC[C@]2(C[C@H]1c1ccc(C(=O)O)cc1)C[C@@H](C(F)(F)F)C2 (single isomer, unassigned) [Example 48, 4-((2R,4s,6S)-7-((5-methoxy-7-methyl-1H-indol-4-yl)methyl)-2-(trifluoromethyl)-7-azaspiro[3.5]nonan-6-yl)benzoic acid or 4-((2S,4r,6S)-7-((5-methoxy-7-methyl-1H-indol-4-yl)methyl)-2-(trifluoromethyl)-7-azaspiro[3.5]nonan-6-yl)benzoic acid]	< 100
–	< 10	COc1cc(C)c2[nH]ccc2c1CN1CC[C@]2(C[C@H]1c1ccc(C(=O)O)cc1)C[C@@H](C(F)(F)F)C2 (single isomer, unassigned) [Example 49, 4-((2R,4s,6S)-7-((5-methoxy-7-methyl-1H-indol-4-yl)methyl)-2-(trifluoromethyl)-7-azaspiro[3.5]nonan-6-yl)benzoic acid or 4-((2S,4r,6S)-7-((5-methoxy-7-methyl-1H-indol-4-yl)methyl)-2-(trifluoromethyl)-7-azaspiro[3.5]nonan-6-yl)benzoic acid]	< 100
–	< 10	COc1cc(C)c2[nH]ccc2c1CN1CC[C@]2(C[C@H]1c1ccc(C(=O)O)cc1)C[C@@H](C#N)C2 (single isomer, unassigned) [Example 52, 4-((2R,4s,6S)-2-cyano-7-((5-methoxy-7-methyl-1H-indol-4-yl)methyl)-7-azaspiro[3.5]nonan-6-yl)benzoic acid or 4-((2S,4r,6S)-2-cyano-7-((5-methoxy-7-methyl-1H-indol-4-yl)methyl)-7-azaspiro[3.5]nonan-6-yl)benzoic acid]	< 100

Further lines, the compound ahead of its results:

SMILES	IC50 (human C3bBb; [2]) [nM]	IC50 (human C3bBb; [3]) [nM]	IC50 [1] [nM]
COc1cc(C)c2[nH]ccc2c1CN1CC[C@H](NCC(F)(F)F)C[C@H]1c1ccc(C(=O)O)cc1 (racemic) [Example 14, (+)-trans-4-(1-((5-methoxy-7-methyl-1H-indol-4-yl)methyl)-4-((2,2,2-trifluoroethyl)amino)piperidin-2-yl)benzoic acid]	10 to 25	–	100 to 200
COc1cc(C)c2[nH]ccc2c1CN1CC[C@H](NS(N)(=O)=O)C[C@H]1c1ccc(C(=O)O)cc1 (racemic) [Example 16, (±)-trans-4-(1-((5-methoxy-7-methyl-1H-indol-4-yl)methyl)-4-(sulfamoylamino)piperidin-2-yl)benzoic acid]	> 100	–	300 to 500
COc1cc(C)c2[nH]ccc2c1CN1CC[C@H](NC2COC2)C[C@H]1c1ccc(C(=O)O)cc1 (racemic) [Example 17, (+)-trans-4-(1-((5-methoxy-7-methyl-1H-indol-4-yl)methyl)-4-(oxetan-3-ylamino)piperidin-2-yl)benzoic acid]	10 to 25	–	100 to 200
COc1cc(C)c2[nH]ccc2c1CN1CCC2(COC2)CC1c1ccc(C(=O)O)cc1 (racemic) [Example 31, (±)-4-(7-((5-methoxy-7-methyl-1H-indol-4-yl)methyl)-2-oxa-7-azaspiro[3.5]nonan-6-yl)benzoic acid]	–	< 10	> 500
COc1cc(C)c2[nH]ccc2c1CN1CC[C@H](c2ccccc2)C[C@H]1c1ccc(C(=O)O)cc1 (racemic) [Example 37, (±)-trans-4-(1-((5-methoxy-7-methyl-1H-indol-4-yl)methyl)-4-phenylpiperidin-2-yl)benzoic acid]	> 100	–	> 500
COc1cc(C)c2[nH]ccc2c1CN1CC[C@@]2(CCCO2)C[C@H]1c1ccc(C(=O)O)cc1 (single isomer, unassigned) [Example 33, 4-((5S,7S)-8-((5-methoxy-7-methyl-1H-indol-4-yl)methyl)-1-oxa-8-azaspiro[4.5]decan-7-yl)benzoic acid or 4-((5R,7S)-8-((5-methoxy-7-methyl-1H-indol-4-yl)methyl)-1-oxa-8-azaspiro[4.5]decan-7-yl)benzoic acid]	–	> 100	> 500
COc1cc(C)c2[nH]ccc2c1CN1CC[C@@]2(CCOC2)C[C@H]1c1ccc(C(=O)O)cc1 (single isomer, unassigned) [Example 34, 4-((5S,7S)-8-((5-methoxy-7-methyl-1H-indol-4-yl)methyl)-2-oxa-8-azaspiro[4.5]decan-7-yl)benzoic acid or 4-((5R,7S)-8-((5-methoxy-7-methyl-1H-indol-4-yl)methyl)-2-oxa-8-azaspiro[4.5]decan-7-yl)benzoic acid]	–	< 10	100 to 200
COc1cc(C)c2[nH]ccc2c1CN1CC[C@]2(CCC(F)(F)C2)C[C@H]1c1ccc(C(=O)O)cc1 (single isomer, unassigned) [Example 35, 4-(5R,7S)-(2,2-difluoro-8-((5-methoxy-7-methyl-1H-indol-4-yl)methyl)-8-azaspiro[4.5]decan-7-yl)benzoic acid or 4-(5S,7S)-(2,2-difluoro-8-((5-methoxy-7-methyl-1H-indol-4-yl)methyl)-8-azaspiro[4.5]decan-7-yl)benzoic acid]	–	< 10	< 100
COc1cc(C)c2[nH]ccc2c1CN1CC[C@]2(CCC(F)(F)C2)C[C@H]1c1ccc(C(=O)O)cc1 (single isomer, unassigned) [Example 36, 4-(5R,7S)-(2,2-difluoro-8-((5-methoxy-7-methyl-1H-indol-4-yl)methyl)-8-azaspiro[4.5]decan-7-yl)benzoic acid or 4-(5S,7S)-(2,2-difluoro-8-((5-methoxy-7-methyl-1H-indol-4-yl)methyl)-8-azaspiro[4.5]decan-7-yl)benzoic acid]	–	< 10	< 100
